Holding throughout (assay): KinomeScan profiling
Holding throughout (type): binding

In assay [1] the target is GSK3B (Homo sapiens, UniProt P49841). The conditions noted are these: read-out: % control. A digest of the protocol: (§1)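 Compounds were screened at 1 μM in DMSO across a 468-kinase KinomeScan panel. Binding was expressed as % control, scaled between a positive control (0%) and DMSO (100%) using luminescence signal. A value under 35% counted as active.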
Assay [2] deals with PCTK2 (Homo sapiens, UniProt Q00537). Conditions: PCTK2, 1 μM; read-out: % control. A digest of the protocol: as §1
For assay [3], the target named is T1, KIT(L576P) (Homo sapiens, UniProt P10721, L576P).
T1 construct: purchased KinomeScan®
The conditions noted are these: read-out: % control. In a few lines:
as §1

The target in assay [4] is PYK2 (Homo sapiens, UniProt Q14289). Conditions: PYK2, 1 μM; read-out: % control. In a few lines:
as §1

Assay [5] deals with T2, TXK (Homo sapiens, UniProt P42681).
T2 sequence (P42681 1-527): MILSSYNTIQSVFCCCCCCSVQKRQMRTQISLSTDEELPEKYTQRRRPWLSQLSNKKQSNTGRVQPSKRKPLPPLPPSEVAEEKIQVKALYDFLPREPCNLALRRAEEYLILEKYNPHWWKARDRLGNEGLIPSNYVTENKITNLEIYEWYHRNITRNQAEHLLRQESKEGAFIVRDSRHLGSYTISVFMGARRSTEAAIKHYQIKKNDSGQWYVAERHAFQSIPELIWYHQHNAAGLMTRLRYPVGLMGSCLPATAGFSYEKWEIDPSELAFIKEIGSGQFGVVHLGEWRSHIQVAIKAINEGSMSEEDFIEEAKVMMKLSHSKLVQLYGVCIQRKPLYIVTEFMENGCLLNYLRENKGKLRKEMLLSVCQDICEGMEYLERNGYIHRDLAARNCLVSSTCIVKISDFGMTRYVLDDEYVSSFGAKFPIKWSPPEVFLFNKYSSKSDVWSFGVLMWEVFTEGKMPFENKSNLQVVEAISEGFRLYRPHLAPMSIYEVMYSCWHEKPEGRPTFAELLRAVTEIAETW
The conditions noted are these: read-out: % control. A digest of the protocol: as §1

Assay [6] has as its target QSK (Homo sapiens, UniProt Q9Y2K2). Conditions: read-out: % control. In a few lines:
as §1

The target of assay [7] is PAK1 (Homo sapiens, UniProt Q13153). Conditions: PAK1, 1 μM; read-out: % control. A digest of the protocol: as §1
For assay [8], the target named is T3, PIK3CA (Homo sapiens, UniProt P42336).
T3 construct: purchased KinomeScan® (panel service)
Conditions: read-out: % control. In a few lines:
as §1

Assay [9] addresses T4, TYK2(JH2domain-pseudokinase) (Homo sapiens, UniProt P29597).
T4 construct: TYK2(JH2domain-pseudokinase)
Conditions: read-out: % control. In a few lines: as §1

For assay [10], the target named is T5, GRK2 (Homo sapiens, UniProt P25098).
T5 sequence (P25098 1-689): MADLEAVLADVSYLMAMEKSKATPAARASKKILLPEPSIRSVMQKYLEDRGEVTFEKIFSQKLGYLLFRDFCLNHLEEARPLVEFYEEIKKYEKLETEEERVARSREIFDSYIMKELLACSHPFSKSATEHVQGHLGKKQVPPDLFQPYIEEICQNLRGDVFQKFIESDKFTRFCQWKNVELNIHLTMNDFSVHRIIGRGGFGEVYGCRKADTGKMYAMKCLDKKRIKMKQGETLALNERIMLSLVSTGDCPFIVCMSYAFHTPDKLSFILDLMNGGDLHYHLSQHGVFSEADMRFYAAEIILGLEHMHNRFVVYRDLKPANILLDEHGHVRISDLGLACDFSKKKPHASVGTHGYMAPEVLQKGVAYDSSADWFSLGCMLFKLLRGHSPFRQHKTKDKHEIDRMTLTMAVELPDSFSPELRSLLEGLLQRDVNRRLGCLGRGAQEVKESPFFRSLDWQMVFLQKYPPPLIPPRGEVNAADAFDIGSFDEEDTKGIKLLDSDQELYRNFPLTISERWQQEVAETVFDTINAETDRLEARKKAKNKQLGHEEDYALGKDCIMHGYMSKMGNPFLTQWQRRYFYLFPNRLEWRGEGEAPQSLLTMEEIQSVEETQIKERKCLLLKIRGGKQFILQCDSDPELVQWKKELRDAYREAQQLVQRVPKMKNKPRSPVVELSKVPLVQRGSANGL
Conditions: GRK2, 1 μM; read-out: % control. A digest of the protocol:
as §1

The target of assay [11] is T6, RIPK4 (Homo sapiens, UniProt P57078).
T6 sequence (P57078 1-832): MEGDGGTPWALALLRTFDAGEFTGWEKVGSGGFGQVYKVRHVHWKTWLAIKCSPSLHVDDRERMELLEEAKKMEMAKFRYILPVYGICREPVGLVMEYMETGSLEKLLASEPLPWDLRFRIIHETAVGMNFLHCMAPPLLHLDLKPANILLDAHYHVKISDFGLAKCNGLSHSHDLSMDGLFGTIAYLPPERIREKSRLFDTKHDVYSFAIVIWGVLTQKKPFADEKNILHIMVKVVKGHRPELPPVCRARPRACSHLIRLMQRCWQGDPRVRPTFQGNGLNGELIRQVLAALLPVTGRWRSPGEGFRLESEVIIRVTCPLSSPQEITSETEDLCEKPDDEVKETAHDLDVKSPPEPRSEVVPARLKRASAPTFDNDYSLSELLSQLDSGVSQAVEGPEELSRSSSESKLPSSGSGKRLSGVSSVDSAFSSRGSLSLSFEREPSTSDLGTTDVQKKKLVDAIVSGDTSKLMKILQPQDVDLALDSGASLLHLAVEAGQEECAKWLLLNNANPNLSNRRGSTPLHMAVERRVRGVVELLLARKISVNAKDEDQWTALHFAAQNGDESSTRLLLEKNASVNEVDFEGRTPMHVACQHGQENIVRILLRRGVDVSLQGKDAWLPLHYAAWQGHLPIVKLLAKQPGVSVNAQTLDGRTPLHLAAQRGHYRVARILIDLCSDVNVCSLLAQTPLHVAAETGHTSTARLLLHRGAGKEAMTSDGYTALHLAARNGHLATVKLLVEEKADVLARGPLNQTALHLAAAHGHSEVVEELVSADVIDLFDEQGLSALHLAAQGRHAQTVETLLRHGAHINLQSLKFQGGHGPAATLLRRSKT
Conditions: RIPK4, 1 μM; read-out: % control. In a few lines: as §1

Among the data in patent publication US12275731B2, “Azaindole inhibitors of wild-type and mutant forms of LRRK2” (DANA-FARBER CANCER INSTITUTE, INC., priority 2018, dated 2025) are remaining binding values, retold here.

Chain of PCTK2 (Q00537 whole entry): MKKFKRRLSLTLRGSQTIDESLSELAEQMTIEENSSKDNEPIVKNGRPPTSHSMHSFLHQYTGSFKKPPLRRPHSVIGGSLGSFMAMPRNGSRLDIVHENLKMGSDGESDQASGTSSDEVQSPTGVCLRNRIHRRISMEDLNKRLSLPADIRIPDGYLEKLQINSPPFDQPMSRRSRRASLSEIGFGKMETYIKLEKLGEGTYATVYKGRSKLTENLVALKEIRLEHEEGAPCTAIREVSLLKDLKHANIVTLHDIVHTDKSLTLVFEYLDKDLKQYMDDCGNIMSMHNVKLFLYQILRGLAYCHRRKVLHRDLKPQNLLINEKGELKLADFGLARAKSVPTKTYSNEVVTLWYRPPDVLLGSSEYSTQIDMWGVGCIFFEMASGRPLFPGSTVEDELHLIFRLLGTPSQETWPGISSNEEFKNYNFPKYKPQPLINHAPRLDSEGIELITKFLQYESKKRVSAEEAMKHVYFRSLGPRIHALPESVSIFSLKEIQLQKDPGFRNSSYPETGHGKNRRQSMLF
Chain of PYK2 (Q14289 whole entry): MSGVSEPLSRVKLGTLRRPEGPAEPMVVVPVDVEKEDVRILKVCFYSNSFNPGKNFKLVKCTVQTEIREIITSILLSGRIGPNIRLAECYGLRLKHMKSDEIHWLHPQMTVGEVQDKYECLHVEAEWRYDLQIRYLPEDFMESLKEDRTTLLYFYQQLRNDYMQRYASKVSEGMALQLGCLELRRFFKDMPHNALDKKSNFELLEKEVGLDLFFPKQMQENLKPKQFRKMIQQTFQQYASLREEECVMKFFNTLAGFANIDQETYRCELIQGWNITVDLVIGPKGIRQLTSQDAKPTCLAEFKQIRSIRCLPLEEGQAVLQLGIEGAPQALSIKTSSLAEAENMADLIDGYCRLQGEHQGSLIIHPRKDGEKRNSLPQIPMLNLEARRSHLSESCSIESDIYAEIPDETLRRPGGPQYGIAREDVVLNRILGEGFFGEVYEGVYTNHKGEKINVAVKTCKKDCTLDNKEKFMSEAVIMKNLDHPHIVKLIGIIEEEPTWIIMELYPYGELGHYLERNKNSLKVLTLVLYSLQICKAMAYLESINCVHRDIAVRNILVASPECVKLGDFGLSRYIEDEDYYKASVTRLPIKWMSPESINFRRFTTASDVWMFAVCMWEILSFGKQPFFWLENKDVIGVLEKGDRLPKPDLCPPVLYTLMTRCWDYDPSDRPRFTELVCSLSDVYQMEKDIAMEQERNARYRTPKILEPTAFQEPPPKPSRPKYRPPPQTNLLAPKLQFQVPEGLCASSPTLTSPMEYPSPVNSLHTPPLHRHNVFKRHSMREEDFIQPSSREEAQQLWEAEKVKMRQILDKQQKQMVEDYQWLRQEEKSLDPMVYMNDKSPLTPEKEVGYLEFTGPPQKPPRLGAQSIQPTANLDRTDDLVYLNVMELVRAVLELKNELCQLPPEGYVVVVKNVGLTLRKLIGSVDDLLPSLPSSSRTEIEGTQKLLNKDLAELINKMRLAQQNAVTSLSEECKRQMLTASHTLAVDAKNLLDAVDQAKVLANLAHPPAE
Chain of GSK3B (P49841 whole entry): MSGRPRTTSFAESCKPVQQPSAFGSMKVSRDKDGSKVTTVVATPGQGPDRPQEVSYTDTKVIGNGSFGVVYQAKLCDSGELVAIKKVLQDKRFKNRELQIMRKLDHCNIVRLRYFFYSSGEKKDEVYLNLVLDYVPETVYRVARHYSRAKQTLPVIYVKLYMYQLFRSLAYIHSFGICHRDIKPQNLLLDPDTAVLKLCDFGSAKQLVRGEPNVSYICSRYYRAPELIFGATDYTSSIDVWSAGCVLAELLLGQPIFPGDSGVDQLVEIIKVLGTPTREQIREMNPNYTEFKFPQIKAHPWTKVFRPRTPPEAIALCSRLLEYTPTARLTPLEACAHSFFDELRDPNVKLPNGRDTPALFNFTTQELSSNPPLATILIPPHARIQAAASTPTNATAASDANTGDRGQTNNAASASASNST
T4 sequence (P29597 589-875 limits assumed): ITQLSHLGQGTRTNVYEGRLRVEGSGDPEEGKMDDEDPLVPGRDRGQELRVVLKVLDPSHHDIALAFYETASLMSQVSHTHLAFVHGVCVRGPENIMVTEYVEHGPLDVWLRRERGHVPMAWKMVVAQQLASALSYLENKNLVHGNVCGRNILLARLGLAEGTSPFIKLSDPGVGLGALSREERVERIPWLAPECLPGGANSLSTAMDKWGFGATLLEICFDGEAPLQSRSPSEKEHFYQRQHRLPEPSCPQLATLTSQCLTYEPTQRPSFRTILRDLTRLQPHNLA
Chain of PAK1 (Q13153 whole entry): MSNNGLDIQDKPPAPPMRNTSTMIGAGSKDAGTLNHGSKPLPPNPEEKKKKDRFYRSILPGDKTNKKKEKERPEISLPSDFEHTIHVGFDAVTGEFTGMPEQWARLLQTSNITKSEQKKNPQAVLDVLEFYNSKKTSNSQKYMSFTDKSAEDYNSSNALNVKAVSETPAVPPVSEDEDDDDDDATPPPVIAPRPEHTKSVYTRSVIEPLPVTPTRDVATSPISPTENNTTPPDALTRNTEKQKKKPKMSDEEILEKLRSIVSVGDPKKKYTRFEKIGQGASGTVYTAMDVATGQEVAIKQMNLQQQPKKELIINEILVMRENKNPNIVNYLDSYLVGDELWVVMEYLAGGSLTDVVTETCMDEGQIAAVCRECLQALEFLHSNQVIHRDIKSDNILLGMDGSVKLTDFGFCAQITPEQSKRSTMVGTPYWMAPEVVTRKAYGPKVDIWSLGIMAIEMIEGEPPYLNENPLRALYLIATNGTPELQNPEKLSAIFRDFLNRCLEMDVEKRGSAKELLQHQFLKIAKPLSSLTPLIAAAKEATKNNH
T3 sequence (P42336 whole entry): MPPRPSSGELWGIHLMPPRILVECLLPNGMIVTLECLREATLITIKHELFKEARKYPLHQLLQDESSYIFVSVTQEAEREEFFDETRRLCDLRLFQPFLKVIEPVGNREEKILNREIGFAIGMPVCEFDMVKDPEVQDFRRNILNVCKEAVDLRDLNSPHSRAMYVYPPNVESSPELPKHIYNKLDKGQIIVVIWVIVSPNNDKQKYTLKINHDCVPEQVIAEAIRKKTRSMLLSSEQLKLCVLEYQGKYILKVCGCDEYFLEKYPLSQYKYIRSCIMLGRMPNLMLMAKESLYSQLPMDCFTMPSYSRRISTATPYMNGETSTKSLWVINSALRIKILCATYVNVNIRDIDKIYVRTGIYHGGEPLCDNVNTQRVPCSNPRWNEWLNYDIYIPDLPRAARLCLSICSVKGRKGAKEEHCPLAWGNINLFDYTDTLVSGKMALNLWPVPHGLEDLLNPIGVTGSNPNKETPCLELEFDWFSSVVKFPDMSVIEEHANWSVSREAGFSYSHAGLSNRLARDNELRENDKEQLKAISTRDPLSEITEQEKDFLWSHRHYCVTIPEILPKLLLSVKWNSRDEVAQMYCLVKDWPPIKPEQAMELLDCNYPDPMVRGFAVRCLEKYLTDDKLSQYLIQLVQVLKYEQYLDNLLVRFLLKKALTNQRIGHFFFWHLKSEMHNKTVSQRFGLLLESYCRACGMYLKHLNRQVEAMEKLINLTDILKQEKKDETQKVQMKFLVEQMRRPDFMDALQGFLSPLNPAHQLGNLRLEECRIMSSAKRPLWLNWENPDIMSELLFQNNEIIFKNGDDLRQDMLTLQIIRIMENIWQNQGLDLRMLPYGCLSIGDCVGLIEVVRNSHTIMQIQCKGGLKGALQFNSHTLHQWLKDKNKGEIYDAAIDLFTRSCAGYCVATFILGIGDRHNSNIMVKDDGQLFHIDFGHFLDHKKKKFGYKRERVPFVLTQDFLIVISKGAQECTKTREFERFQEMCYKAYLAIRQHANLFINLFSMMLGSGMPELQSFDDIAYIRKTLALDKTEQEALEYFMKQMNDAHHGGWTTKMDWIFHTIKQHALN
T1 sequence (P10721 26-976 L576P): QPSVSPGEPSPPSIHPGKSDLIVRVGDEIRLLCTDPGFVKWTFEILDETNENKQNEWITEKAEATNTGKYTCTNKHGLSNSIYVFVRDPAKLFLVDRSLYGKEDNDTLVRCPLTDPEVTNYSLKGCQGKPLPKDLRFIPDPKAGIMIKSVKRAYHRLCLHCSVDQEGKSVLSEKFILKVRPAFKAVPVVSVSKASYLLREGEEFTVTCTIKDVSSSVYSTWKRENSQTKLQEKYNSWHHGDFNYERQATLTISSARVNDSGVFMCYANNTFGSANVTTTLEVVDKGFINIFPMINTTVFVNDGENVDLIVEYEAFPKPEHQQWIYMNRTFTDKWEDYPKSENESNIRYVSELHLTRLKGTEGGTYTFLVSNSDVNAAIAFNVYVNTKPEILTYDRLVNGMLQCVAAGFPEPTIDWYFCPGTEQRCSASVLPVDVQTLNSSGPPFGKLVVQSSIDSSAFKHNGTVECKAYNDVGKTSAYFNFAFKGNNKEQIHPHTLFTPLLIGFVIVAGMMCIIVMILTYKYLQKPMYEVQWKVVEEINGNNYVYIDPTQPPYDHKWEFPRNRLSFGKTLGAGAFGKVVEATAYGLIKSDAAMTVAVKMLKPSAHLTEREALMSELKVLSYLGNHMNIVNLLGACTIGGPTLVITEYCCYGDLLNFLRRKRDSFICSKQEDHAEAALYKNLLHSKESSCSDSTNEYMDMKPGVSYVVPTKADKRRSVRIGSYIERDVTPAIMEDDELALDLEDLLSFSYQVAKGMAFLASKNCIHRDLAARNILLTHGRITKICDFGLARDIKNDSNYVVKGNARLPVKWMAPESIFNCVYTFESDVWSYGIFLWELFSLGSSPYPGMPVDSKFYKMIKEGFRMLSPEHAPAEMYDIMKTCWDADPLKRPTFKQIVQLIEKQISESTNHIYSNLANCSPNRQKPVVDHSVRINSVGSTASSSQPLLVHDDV

In the case of `CNc1c(-c2cnn([C@H]3CCN(C(C)=O)C[C@@H]3F)c2)cnc2[nH]cc(Cl)c12` [Compound 77, 1-((3S,4S)-4-(4-(3-chloro-4-(methylamino)-1H-pyrrolo[2,3-b]pyridin-5-yl)-1H-pyrazol-1-yl)-3-fluoropiperidin-1-yl)ethan-1-one], the remaining binding at 1 µM in assay [1] was 69%; in assay [2], 100%; in assay [3] it was 10%; in assay [4] it was 89%; in assay [5], 81%; in assay [6], 76%. Besides, the remaining binding at 1 µM worked out at 99% in [7]; 100% in assay [8]; 84% in assay [9]; 93% in assay [10]; 1.3% in [11].

For the compound `CNc1c(-c2ccc(C(=O)N3CCC(N4CCOCC4)CC3)cc2)cnc2[nH]cc(Cl)c12` [Compound 96, (4-(3-chloro-4-(methylamino)-1H-pyrrolo[2,3-b]pyridin-5-yl)phenyl)(4-morpholinopiperidin-1-yl)methanone], the remaining binding at 1 µM stood at 63% in assay [1]; 97% in assay [2]; 19% in assay [3]; 92% in assay [4]; 81% in assay [5]; 76% in [6]. Further, the remaining binding at 1 µM in assay [7] came out at 99%; in assay [8] it was 100%; in assay [9] it was 89%; in assay [10] it was 94%; in assay [11], 7.8%.

As to `O=C(c1ccc(-c2cnc3[nH]cc(Cl)c3c2NC2CCCC2)cc1)N1CCC(N2CCOCC2)CC1` [Compound 101, (4-(3-chloro-4-(cyclopentylamino)-1H-pyrrolo[2,3-b]pyridin-5-yl)phenyl)(4-morpholinopiperidin-1-yl)methanone], the remaining binding at 1 µM in assay [1] is 100%; in assay [2] it was 96%; in assay [3], 46%; in assay [4], 78%; in [5] it was 84%; in assay [6], 97%. Also, the remaining binding at 1 µM in [7] amounted to 100%; in assay [8], 99%; in [9] it was 100%; in assay [10], 100%; in assay [11] it was 100%.
